Tests used:
[1] = Check for precipitation of crystal in 1:1 mixtures of oil solution and diethyl amino hydroxy benzoyl hexyl benzoate kept at 5° C.; format: physicochemical; set-up: key to Evaluation results 1 week / Evaluation results Following day / Evaluation results Same day: X: Evaluation results accompanied by an x in Table 2 indicate that crystal had precipitated at the applicable point in time; conditions: for Evaluation results 1 week / Evaluation results Following day / Evaluation results Same day / Evaluation results 6 months: 1:1 by mass with diethyl amino hydroxy benzoyl hexyl benzoate, kept at 5° C.; for Evaluation results 1 week: checked after one week; for Evaluation results Following day: checked after one day; for Evaluation results Same day: heated to 80° C., cooled, checked after half a day; for Evaluation results 6 months: checked after six months
Source text: Evaluation results accompanied by an x in Table 2 indicate that crystal had precipitated at the applicable point in time.

[2] = Low-temperature behaviour of octyl hydroxy stearate monomer and oligomers (clouding point, liquid state); format: physicochemical
Source text: A monomer of octyl hydroxy stearate has problems in terms of stable dissolution of poorly soluble substances, while an octamer and above lead to poor self-condensing property of 12-hydroxy stearate and result in a broad distribution of molecular weight, which in turn causes unstable quality, solidification at temperatures below zero, and undesirable touch and other tactile senstations. For example, a monomer of octyl hydroxy stearate is a low-viscosity oil which is non-sticky and has a clean touch and also offers excellent oxidization stability. However, its clouding point is high, or at approx. 20° C., and thus crystal generates in the solution or the entire formulation solidifies in winter, resulting in markedly lower feeling of use and other problems such as the formulation not coming out of the container due to an increased viscosity. An octamer has similar problems. A dimer of octyl hydroxy stearate is structurally a monomer with one more molecule unit. However, it has substantially different chemical properties.

[3] = cited from earlier work

With `CCCCCCC(O)CCCCCCCCCCC(=O)OCC(CC)CCCC` (centres unmarked) [Component 16, Octyl hydroxyl stearate (monomer)] the “Evaluation results 1 week” value [1] was “X”, the “precipitation of crystal / stability of the 1:1 mixture, in words” value ([1]; summary of Table 2, 5° C.) was “crystal precipitated after one week” and the clouding point [2] was “approx. 20 °C”.

For `CC(C)CCCCCCCCCCOC(=O)CCCCCC(C)C` [Component 17, Isotridecyl isononanate], the “Evaluation results Following day” value [1] was “X”.

For `CCO` [Component 18, Ethanol (99%)], the “Evaluation results Following day” value [1] was “X”.

With `CCCCCCCCCCCCCCCCOC(=O)C(CC)CCCC` (centres unmarked) [Component 19, Cetyl ethyl hexanoate] the “Evaluation results Following day” value [1] was “X”.

With `CCCCCCCCCCCCCCCC(=O)OCC(CC)CCCC` (centres unmarked) [Component 20, Ethyl hexyl palmitate] the “Evaluation results Following day” value [1] was “X”.

With `CCCCC(CC)C(=O)OCC(COC(=O)C(CC)CCCC)OC(=O)C(CC)CCCC` (centres unmarked) [Component 21, Glycerin tri 2-ethyl hexanoate] the “Evaluation results Following day” value [1] was “X”.

With `CC(C)CCCCCCOC(=O)CCCCCC(C)C` [Component 25, Isononyl isononanate] the “Evaluation results Following day” value [1] was “X”.

In the case of `CC(C)CCCC(C)CCCC(C)CCCCC(C)CCCC(C)CCCC(C)C` (centres unmarked) [Component 26, Squalane], the “Evaluation results Same day” value [1] is reported as “X”.

For `CCCCCCCCCCC(CO)CCCCCCCC` (centres unmarked) [Component 29, Octyl dodecanol], the “Evaluation results Following day” value [1] was “X”.

In the case of `CCCCCCCC(=O)OCC(C)OC(=O)CCCCCCC` (centres unmarked) [Component 30, Propylene glycol dicaprylate], the “Evaluation results Following day” value [1] is reported as “X”.

In the case of `OCC(O)CO` [Component 31, Glycerin], the “Evaluation results Same day” value [1] is reported as “X”.

With `CC(O)CCO` (centres unmarked) [Component 32, 1,3-BG] the “Evaluation results Following day” value [1] was “X”.

For `CCCCCCCCCCCCCCCC(=O)OC(C)C` [Component 33, Isopropyl palmitate], the “Evaluation results Same day” value [1] was “X”.

In the case of `CCCCCCCCCCCCCC(=O)OCC(CCCCCCCC)CCCCCCCCCC` (centres unmarked) [Component 34, Octyl dodecyl myristate], the “Evaluation results Same day” value [1] is reported as “X”.

In the case of `CCCCC(CC)C(=O)OCC(CC)(CO)COCC(CC)(COC(=O)C(CC)CCCC)COC(=O)C(CC)CCCC` (centres unmarked) [Component 44, Ditrimethylol propane triethyl hexanoate], the “Evaluation results Following day” value [1] is reported as “X”.

With `CC(C)CCCCCCCCCCCCCCCOC(=O)CC(O)C(=O)OCCCCCCCCCCCCCCCC(C)C` (centres unmarked) [Component 47, Diisostearyl malate] the “Evaluation results Following day” value [1] was “X”.

In the case of `CCCCC(CC)C(=O)OCC(COC(=O)C(CC)CCCC)OC(=O)C(CC)CCCC` (centres unmarked) [Component 50, Triethyl hexanoin], the “Evaluation results Following day” value [1] is reported as “X”.

For `CCCCC(CC)C(=O)OCC(C)(C)COC(=O)C(CC)CCCC` (centres unmarked) [Component 51, Neopentyl glycol diethyl hexanoate], the “Evaluation results Following day” value [1] was “X”.

With `CCCCCCCCCCC(CCCCCCCC)COC(=O)C(C)O` (centres unmarked) [Component 52, Octyl dodecyl lactate] the “Evaluation results Following day” value [1] was “X”.

With `CCCCCCCC(=O)OCC(C)(C)COC(=O)CCCCCCC` [Component 53, Neopentyl glycol dicaprylate] the “Evaluation results Same day” value [1] was “X”.

For `CCCCC(CC)COC(=O)/C=C/c1ccc(OC)cc1` (centres unmarked) [Component 56, Ethyl hexyl para-methoxy cinnamate], the “Evaluation results 1 week” value [1] was “X”.

For `CCCCCCCCOC(=O)OCCCCCCCC` [Component 57, Dicapryl carbonate], the “Evaluation results Same day” value [1] was “X”.

With `CCCCCCCCOCCCCCCCC` [Component 58, Dioctyl ether] the “Evaluation results Following day” value [1] was “X”.

For `COc1ccc(C(=O)c2ccccc2)c(O)c1` [Component 59, Benzophenone-3], the “Evaluation results Same day” value [1] was “X”.

In the case of `CCCCCCCCCCCCCCCCCCO` [Component 61, Stearyl alcohol], the “Evaluation results Same day” value [1] is reported as “X”.

For `CCCCCCOC(=O)c1ccccc1C(=O)c1ccc(N(CC)CC)cc1O` [diethyl amino hydroxy benzoyl hexyl benzoate], the “dissolves in 2-ethyl hexyl para-methoxy cinnamate” value ([3]; solvent 2-ethyl hexyl para-methoxy cinnamate) is given as 42%, the dissolves in cyclomethicone ([3]; solvent cyclomethicone (volatile silicone)) is given as 0.4% and the “dissolves in octyl para-methoxy cinnamate” value ([3]; solvent octyl para-methoxy cinnamate) is given as “up to 42 percent by mass”.

In the case of C12-15 alkyl benzoate [Component 62], the “Evaluation results Following day” value [1] is reported as “X”.

For Cyclomethicone [Component 64], the “Evaluation results Same day” value [1] was “X”.

In the case of DPG [Component 22], the “Evaluation results Same day” value [1] is reported as “X” and the “Evaluation results Following day” value [1] is reported as “X”.

With “Diglyceryl tetraisostearate [Component 49]” the “Evaluation results Following day” value [1] was “X”.

In the case of “Ditrimethylol propane (isostearate/sebacate) [Component 46]”, the “Evaluation results Following day” value [1] is reported as “X”.

In the case of “Erythrityl triethyl hexanoate [Component 45]”, the “Evaluation results Following day” value [1] is reported as “X”.

With “Glycerin tri (capryl/caprate) [Component 28]” the “Evaluation results Following day” value [1] was “X”.

With “Octyl hydroxyl stearate oligomer (dimmer) [Component 1]” the “Evaluation results 6 months” value [1] was “◯” and the “state at 5° C.” value ([2]; 5° C.) was “remains permanently liquid”.

In the case of “Octyl hydroxyl stearate oligomer (heptamer) [Component 6]”, the “Evaluation results 6 months” value [1] is reported as “◯”.

In the case of “Octyl hydroxyl stearate oligomer (hexamer) [Component 5]”, the “Evaluation results 6 months” value [1] is reported as “◯”.

With “Octyl hydroxyl stearate oligomer (pentamer) [Component 4]” the “Evaluation results 6 months” value [1] was “◯”.

For “Octyl hydroxyl stearate oligomer (tetramer) [Component 3]”, the “Evaluation results 6 months” value [1] was “◯”.

With “Octyl hydroxyl stearate oligomer (trimer) [Component 2]” the “Evaluation results 6 months” value [1] was “◯”.

In the case of Sorbitan isostearate [Component 36], the “Evaluation results Following day” value [1] is reported as “X”.

For Sorbitan sesquioleate [Component 35], the “Evaluation results Following day” value [1] was “X”.

— patent US8198335B2, “Cosmetic material” (Parahermosa Co., Ltd., priority 2009, dated 2012)
